These results are taken from ChEMBL document CHEMBL1137870, “Synthesis and evaluation of 2-amino-8-alkoxy quinolines as MCHr1 antagonists. Part 2” (Bioorg Med Chem Lett, 2004).

The target of data set [1] is T1, Melanin-concentrating hormone receptor 1 (Homo sapiens, UniProt Q99705). In words: Concentration required to inhibit 50% of melanin-concentrating hormone induced [Ca2+] flux in IMR-32 cells measured by using a fluorometric imaging plate reader. In kind it is functional, cell-based.
The target in data set [2] is T1, Melanin-concentrating hormone receptor 1. The data set is described as follows: Concentration required to inhibit binding of [125I]-MCH radioligand to human Melanin-concentrating hormone receptor 1 in IMR-32 I3.4.2 cell membranes.
Data set [3] is described as follows: Area under curve in plasma was determined at the peroral dose of 10 mg/kg in diet-induced obese (DIO) mice. More on the design: dose 10 mg/kg, route oral. In kind it is ADME, organism-based. Conditions: mouse, in vivo, po.
A short description of data set [4]: Area under curve in brain was determined at the peroral dose of 10 mg/kg in diet-induced obese (DIO) mice. In kind it is ADME, organism-based. More on the design: dose 10 mg/kg, route oral. Particulars: mouse, in vivo, po.
Data set [5] in a line: Brain/plasma ratio was determined at peroral dose of 10 mg/kg in diet-induced obese (DIO) mice. In kind it is ADME, organism-based. More on the design: dose 10 mg/kg, route oral. Particulars: mouse, brain and plasma, po.
A short description of data set [6]: Half life in plasma was determined at the peroral dose of 10 mg/kg in diet-induced obese (DIO) mice. Conditions: mouse, po. More on the design: dose 10 mg/kg, route oral. Format: ADME, organism-based.
Data set [7] is described as follows: Half life in brain was determined at the peroral dose of 10 mg/kg in diet-induced obese (DIO) mice. Format: ADME, organism-based. More on the design: dose 10 mg/kg, route oral. Particulars: mouse, po.

For orientation: IC50 means the concentration needed to halve the response being measured. High values mean lower potency, low ones higher potency. The term AUC denotes concentration integrated over time. Lower therefore signals less exposure. Usually Kp stands for the ratio of the level in a tissue or fluid to that in plasma or blood. What is called half-life is how long it takes for the measured level to halve. Low readings indicate rapid decline, high ones slow decline.

The structures appear in SMILES notation.

T1 sequence (Q99705 whole entry): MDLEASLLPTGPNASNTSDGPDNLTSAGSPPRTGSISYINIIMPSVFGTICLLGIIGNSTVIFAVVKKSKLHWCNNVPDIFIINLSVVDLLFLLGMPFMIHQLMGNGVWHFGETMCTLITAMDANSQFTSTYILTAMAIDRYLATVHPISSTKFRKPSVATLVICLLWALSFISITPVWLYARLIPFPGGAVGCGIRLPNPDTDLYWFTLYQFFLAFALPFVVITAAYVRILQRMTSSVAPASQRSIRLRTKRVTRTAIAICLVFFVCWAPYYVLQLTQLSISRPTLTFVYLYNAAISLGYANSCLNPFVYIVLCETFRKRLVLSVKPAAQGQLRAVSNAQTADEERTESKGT

`CC(C)c1ccc(C(=O)NCCCOc2cccc3ccc(N)nc23)cc1`: the IC50 in data set [1] was 0.14 µM; in data set [2], 0.06 µM.

As for `O=C(NCCCOc1cccc2ccc(NCc3ccc(-c4ccccc4Cl)o3)nc12)Nc1ccc2c(c1)OCO2`, the IC50 came to 3.11 µM in data set [1] and 0.05 µM in data set [2].

Regarding `CC(CNC1CC1)Oc1cccc2ccc(N)nc12` (stereo not given), the figures for the IC50 in data set [1] and in data set [2] were 0.58 µM and 0.05 µM, respectively.

For `Nc1ccc2cccc(OCCCNC(=O)c3ccc4c(c3)OCO4)c2n1`, the IC50 in data set [1] came to 0.07 µM; in data set [2] it was 0.007 µM.

Consider `CC(CN1CCCCC1)Oc1cccc2ccc(N)nc12` (stereo not given), for which the IC50 in data set [1] stood at 0.29 µM; in data set [2], 0.04 µM.

Turning to `CC(CN1CCOCC1)Oc1cccc2ccc(N)nc12` (stereo not given), the IC50 in data set [1] is 0.19 µM; in data set [2] it was 0.08 µM.

As to `COc1cccc(CNCC(C)Oc2cccc3ccc(N)nc23)c1` (stereo not given), the IC50 amounted to 0.6 µM in data set [1] and 0.001 µM in data set [2].

Regarding `CN(C)CC1CCc2cc(NC(=O)c3ccc(-c4ccc(F)cc4)cc3)ccc2C1` (single isomer, unassigned; (-)), the IC50 came out at 0.872 µM in data set [1] and 0.085 µM in data set [2].

On to `Nc1ccc2cccc(OCCCNC(=O)Nc3cccc(Cl)c3)c2n1`, for which the IC50 in data set [1] is 0.008 µM; in data set [2], 0.0009 µM.

As for `CC(CNCc1ccsc1)Oc1cccc2ccc(N)nc12` (stereo not given), the values for the IC50 in data set [1] and in data set [2] were 0.15 µM and 0.01 µM, respectively.

For the compound `CC(CNC1CCCC1)Oc1cccc2ccc(N)nc12` (stereo not given), the IC50 in data set [1] and in data set [2] was 0.03 µM in each case.

For the compound `CC(CNCC1CC1)Oc1cccc2ccc(N)nc12` (stereo not given), the IC50 in data set [1] was found to be 0.46 µM; in data set [2], 0.08 µM.

Regarding `Nc1ccc2cccc(OCCCNC(=O)c3cccc(Cl)c3)c2n1`, the IC50 in data set [1] was found to be 0.003 µM; in data set [2] it was 0.0004 µM.

Regarding `Nc1ccc2cccc(OCCNCc3ccoc3)c2n1`, the IC50 was over 10 µM in data set [1] and 0.66 µM in data set [2].

Take `CC(CNc1ccc2[nH]ncc2c1)Oc1cccc2ccc(N)nc12` (stereo not given): the figures for the IC50 in data set [1] and in data set [2] were 8.18 µM and 0.53 µM, respectively.

On to `CC(C)c1ccc(CNCCCOc2cccc3ccc(N)nc23)cc1`, for which the results for the IC50 in data set [1] and in data set [2] were 0.63 µM and 0.01 µM, respectively.

On to `CC(CNCC1CCCC1)Oc1cccc2ccc(N)nc12` (stereo not given), for which the IC50 in data set [1] and in data set [2] was 0.1 µM throughout.

Turning to `Nc1ccc2cccc(OCCNCc3ccc4c(c3)OCO4)c2n1`, the IC50 was 8.96 µM in data set [1] and 0.52 µM in data set [2].

Turning to `CC(CNCc1ccoc1)Oc1cccc2ccc(N)nc12` (stereo not given), the results for the IC50 in data set [1] and in data set [2] were 0.1 µM and 0.01 µM, respectively.

In the case of `Nc1ccc2cccc(OCCCNCc3ccc(Cl)c(C(F)(F)F)c3)c2n1`, the AUC in data set [3] amounted to 9960 ng·h/mL; in data set [4], 9520 ng·h/mL. The Kp in data set [5] turned out to be 0.96. In addition, the IC50 in data set [1] turned out to be 0.22 µM; in data set [2] it was 0.005 µM. In addition, the half-life in data set [6] is 8.9 h.

`CC(CNCc1ccc2c(c1)OCO2)Oc1cccc2ccc(N)nc12` (stereo not given): the IC50 worked out at 0.13 µM in data set [1] and 0.03 µM in data set [2].

In the case of `N#Cc1cccc(C(=O)NCCCOc2cccc3ccc(NCc4ccc(-c5ccc(Cl)cc5)o4)nc23)c1`, the IC50 in data set [1] came to 0.04 µM; in data set [2] it was 0.002 µM.

On to `N#Cc1cccc(C(=O)NCCCOc2cccc3ccc(NCc4ccc(-c5cccc(Cl)c5)o4)nc23)c1`, for which the IC50 was 0.01 µM in data set [1] and 0.005 µM in data set [2].

Turning to `CC(CNC1CCCCC1)Oc1cccc2ccc(N)nc12` (stereo not given), the figures for the IC50 in data set [1] and in data set [2] were 2.17 µM and 0.21 µM, respectively.

`Nc1ccc2cccc(OCCCNC(=O)c3cccc(OC(F)(F)F)c3)c2n1`: the figures for the AUC in data set [3] and in data set [4] were 424 ng·h/mL and 68 ng·h/mL, respectively. Moreover, the half-life in data set [7] is 0.6 h; in data set [6], 1.2 h. Moreover, in data set [5], the Kp amounted to 0.2. For the same compound, the IC50 in data set [1] came out at 0.02 µM; in data set [2], 0.006 µM.

`CC(CC(C)(C)C)Oc1cccc2ccc(N)nc12` (stereo not given) returned an IC50 in data set [2] of 0.05 µM.

Turning to `COc1cccc(C(=O)NCCCOc2cccc3ccc(N)nc23)c1`, the IC50 in data set [1] is 0.03 µM; in data set [2], 0.002 µM.

`Nc1ccc2cccc(OCCCNC(=O)Nc3ccc4c(c3)OCO4)c2n1`: the IC50 in data set [1] came out at 0.11 µM; in data set [2] it was 0.005 µM.

As for `COCC1=C(C(=O)OC)[C@H](c2ccc(F)c(F)c2)N(C(=O)NCCCN2CCC(c3cccc(NC(C)=O)c3)CC2)C(=O)N1` [SNAP-7941], the IC50 in data set [1] turned out to be 0.015 µM; in data set [2], 0.003 µM.

With `O=C(NCCCOc1cccc2ccc(NCc3ccc(-c4ccccc4Cl)o3)nc12)c1cccc(Cl)c1`, the IC50 came out at 0.02 µM in data set [1] and 0.001 µM in data set [2].

On to `CC(CN1CCCC1)Oc1cccc2ccc(N)nc12` (stereo not given), for which the IC50 in data set [1] was determined as 0.36 µM; in data set [2], 0.07 µM.

On to `CC(CNCc1ccccc1)Oc1cccc2ccc(N)nc12` (stereo not given), for which the IC50 in data set [1] was 0.34 µM; in data set [2], 0.1 µM.

Consider `Nc1ccc2cccc(OCCCNc3ccc4c(c3)OCO4)c2n1`, for which the figures for the IC50 in data set [1] and in data set [2] were 0.27 µM and 0.01 µM, respectively.

As for `Nc1ccc2cccc(OCCCNc3ccc4c(c3)OC(F)(F)O4)c2n1`, the IC50 in data set [1] was 0.1 µM; in data set [2] it was 0.001 µM.

As to `N#Cc1cccc(C(=O)NCCCOc2cccc3ccc(N)nc23)c1`, the AUC in data set [3] came out at 328 ng·h/mL; in data set [4] it was 11 ng·h/mL. For the same compound, the half-life in data set [7] is 1.6 h; in data set [6], 1.4 h. For the same compound, in data set [5], the Kp was 0.03. Moreover, the IC50 was 0.007 µM in data set [1] and 0.003 µM in data set [2].

Regarding `CCCNc1ccc2cccc(OCCCNC(=O)c3cccc(Cl)c3)c2n1`, the IC50 in data set [1] turned out to be 1.12 µM; in data set [2], 0.01 µM.
